Experimental data taken from ChEMBL document CHEMBL1127582, “Novel 3 alpha-(diphenylmethoxy)tropane analogs: potent dopamine uptake inhibitors without cocaine-like behavioral profiles” (J Med Chem, 1994).

Tests used:
[1] = target: Sodium-dependent dopamine transporter (Rattus norvegicus, UniProt P23977); test: Compound was evaluated for its ability to displace [3H]WIN-35428 binding in rat caudate-putamen; type: tissue-based
Rattus norvegicus = species on record: Rattus norvegicus; test: Compound was evaluated for its ability to block the [3H]-Dopamine uptake in rat caudate-putamen; type: functional, organism-based

Sodium-dependent dopamine transporter, sequence (P23977 whole entry): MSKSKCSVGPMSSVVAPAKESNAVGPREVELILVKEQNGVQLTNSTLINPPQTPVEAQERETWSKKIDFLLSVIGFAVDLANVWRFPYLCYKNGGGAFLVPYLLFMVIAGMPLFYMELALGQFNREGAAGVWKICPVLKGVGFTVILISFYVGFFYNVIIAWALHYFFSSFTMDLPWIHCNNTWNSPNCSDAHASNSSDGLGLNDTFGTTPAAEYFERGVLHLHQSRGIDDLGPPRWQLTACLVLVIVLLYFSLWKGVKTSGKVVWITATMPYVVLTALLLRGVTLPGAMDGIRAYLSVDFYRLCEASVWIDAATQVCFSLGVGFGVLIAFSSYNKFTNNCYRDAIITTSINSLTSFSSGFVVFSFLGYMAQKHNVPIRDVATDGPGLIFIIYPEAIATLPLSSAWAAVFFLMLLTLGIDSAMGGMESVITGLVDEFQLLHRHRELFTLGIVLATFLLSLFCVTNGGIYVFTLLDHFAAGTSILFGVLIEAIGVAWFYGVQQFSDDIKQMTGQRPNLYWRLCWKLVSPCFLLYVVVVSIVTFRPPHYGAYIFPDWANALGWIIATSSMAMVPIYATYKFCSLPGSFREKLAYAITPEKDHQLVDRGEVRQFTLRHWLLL

SMILES | Ki [1] | IC50 (Rattus norvegicus)
CN1[C@@H]2CC[C@H]1C[C@@H](OC(c1ccccc1)c1ccc(Cl)cc1)C2 (some centres undefined) | 30 nM | 115 nM
CN1C2CCC1CC(OC(c1ccccc1)c1ccc(Cl)cc1)C2 (centres undefined) | 854 nM | 3520 nM
COc1ccc(C(OC2CC3CCC(C2)N3C)c2ccc(OC)cc2)cc1 (centres undefined) | 2000 nM | 2880 nM
COc1ccc(C(OC2CC3CCC(C2)N3C)c2ccccc2)cc1 (centres undefined) | 78.4 nM | 468 nM
Fc1ccc(C(OCCN2CCN(CCCc3ccccc3)CC2)c2ccc(F)cc2)cc1 [VANOXERINE] |  | 5 nM
